Measured values: patent publication US10987359B2, “Oxadiazepinone derivatives and methods of treating hepatitis B infections” (priority 2016, dated 2021)

What follows are molecules tested on HBV (assay: HBV replication inhibition assay (BDNA assay) in HepG2.2.15 cells). Details: Hepatitis B virus, HepG2.2.15, HBV replication assay (BDNA assay), HepG2.2.15 cells; read-out: DNA EC50.
Type: cell-based
Outline: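 Supernatant encapsidated HBV DNA was measured by bDNA after DNase digestion and proteinase K release. Stably HBV-integrated HepG2.2.15 cells had two 3-day compound exposures (0.5% DMSO). Signals were background-subtracted and normalized to DMSO wells, and EC50 was obtained by four-parameter fit.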
Molecule `CN1OC(C(=O)NCC(F)F)Cn2nc3c(c2C1=O)CN(C(=O)Nc1ccc(F)c(Cl)c1)CC3` (stereo not shown) [Compound 136, N10-(3-chloro-4-fluorophenyl)-N4-(2,2-difluoroethyl)-2-methyl-1-oxo-1,4,5,8,9,11-hexahydropyrido[4′,3′:3,4]pyrazolo[5,1-d][1,2,5]oxadiazepine-4,10(2H)-dicarboxamide] has an EC50 of 1 to 100 nM. `CN(CC(F)F)C(=O)C1Cn2nc3c(c2C(=O)N(C)O1)CN(C(=O)Nc1ccc(F)c(Cl)c1F)CC3` (stereo not shown) [Compound 158, N10-(3-chloro-2,4-difluorophenyl)-N4-(2,2-difluoroethyl)-N4,2-dimethyl-1-oxo-1,4,5,8,9,11-hexahydropyrido[4′,3′:3,4]pyrazolo[5,1-d][1,2,5]oxadiazepine-4,10(2H)-dicarboxamide] was tested, and the EC50 was 1 to 100 nM. `CN(CC(F)F)C(=O)C1Cn2nc3c(c2C(=O)N(C)O1)CN(C(=O)Nc1cc(Cl)c(F)cc1F)CC3` (stereo not shown) [Compound 159, N10-(5-chloro-2,4-difluorophenyl)-N4-(2,2-difluoroethyl)-N4,2-dimethyl-1-oxo-1,4,5,8,9,11-hexahydropyrido[4′,3′:3,4]pyrazolo[5,1-d][1,2,5]oxadiazepine-4,10(2H)-dicarboxamide] was tested, and the EC50 was 1 to 100 nM. `CN(CC(F)F)C(=O)C1Cn2nc3c(c2C(=O)N(C)O1)CN(C(=O)Nc1ccc(F)c(C#N)c1)CC3` (stereo not shown) [Compound 160, N10-(3-cyano-4-fluorophenyl)-N4-(2,2-difluoroethyl)-N4,2-dimethyl-1-oxo-1,4,5,8,9,11-hexahydropyrido[4′,3′:3,4]pyrazolo[5,1-d][1,2,5]oxadiazepine-4,10(2H)-dicarboxamide] showed an EC50 of 1 to 100 nM. For `CN(CC(F)F)C(=O)C1Cn2nc3c(c2C(=O)N(C)O1)CN(C(=O)Nc1ccc(F)c(C#N)c1F)CC3` (stereo not shown) [Compound 161, N10-(3-cyano-2,4-difluorophenyl)-N4-(2,2-difluoroethyl)-N4,2-dimethyl-1-oxo-1,4,5,8,9,11-hexahydropyrido[4′,3′:3,4]pyrazolo[5,1-d][1,2,5]oxadiazepine-4,10(2H)-dicarboxamide], the EC50 was 1 to 100 nM. For `CC(=O)NCC1Cn2nc3c(c2C(=O)N(C)O1)CN(C(=O)Nc1ccc(F)c(Cl)c1)CC3` (stereo not shown) [Compound 162, -(acetamidomethyl)-N-(3-chloro-4-fluoro-phenyl)-2-methyl-1-oxo-5,8,9,11-tetrahydro-4H-pyrido[2,3]pyrazolo[2,4-d][1,2,5]oxadiazepine-10-carboxamide], the EC50 was 1 to 100 nM. In the case of `CN1OC(CNS(=O)(=O)C(F)(F)F)Cn2nc3c(c2C1=O)CN(C(=O)Nc1ccc(F)c(Cl)c1)CC3` (stereo not shown) [Compound 164, N-(3-chloro-4-fluorophenyl)-2-methyl-1-oxo-4-(((trifluoromethyl)sulfonamido)methyl)-1,4,5,8,9,11-hexahydropyrido[4′,3′:3,4]pyrazolo[5,1-d][1,2,5]oxadiazepine-10(2H)-carboxamide], the EC50 is reported as 100 to 500 nM. For `CN1OC(CNS(C)(=O)=O)Cn2nc3c(c2C1=O)CN(C(=O)Nc1ccc(F)c(Cl)c1)CC3` (stereo not shown) [Compound 165, N-(3-chloro-4-fluorophenyl)-2-methyl-4-(methylsulfonamidomethyl)-1-oxo-1,4,5,8,9,11-hexahydropyrido[4′,3′:3,4]pyrazolo[5,1-d][1,2,5]oxadiazepine-10(2H)-carboxamide], the EC50 was 1 to 100 nM. Molecule `COC(=O)NCC1Cn2nc3c(c2C(=O)N(C)O1)CN(C(=O)Nc1ccc(F)c(Cl)c1)CC3` (stereo not shown) [Compound 166, methyl((10-((3-chloro-4-fluorophenyl)carbamoyl)-2-methyl-1-oxo-1,2,4,5,8,9,10,11-octahydropyrido[4′,3′:3,4]pyrazolo[5,1-d][1,2,5]oxadiazepin-4-yl)methyl)carbamate] has an EC50 of 1 to 100 nM. Molecule `CNC(=O)C1Cn2nc3c(c2C(=O)N(C)O1)CN(C(=O)Nc1ccc(F)c(C#N)c1F)CC3` (stereo not shown) [Compound 195, N10-(3-cyano-2,4-difluorophenyl)-N4,2-dimethyl-1-oxo-1,4,5,8,9,11-hexahydropyrido[4′,3′:3,4]pyrazolo[5,1-d][1,2,5]oxadiazepine-4,10(2H)-dicarboxamide] has an EC50 of 1 to 100 nM. Molecule `CCC(=O)NCC1Cn2nc3c(c2C(=O)N(C)O1)CN(C(=O)Nc1ccc(F)c(Cl)c1)CC3` (stereo not shown) [Compound 197, N-(3-chloro-4-fluorophenyl)-2-methyl-1-oxo-4-(propionamidomethyl)-1,4,5,8,9,11-hexahydropyrido[4′,3′:3,4]pyrazolo[5,1-d][1,2,5]oxadiazepine-10(2H)-carboxamide] has an EC50 of 1 to 100 nM. With `CN1OC(CNC(=O)C2CC2)Cn2nc3c(c2C1=O)CN(C(=O)Nc1ccc(F)c(Cl)c1)CC3` (stereo not shown) [Compound 198, N-(3-chloro-4-fluorophenyl)-4-(cyclopropanecarboxamidomethyl)-2-methyl-1-oxo-1,4,5,8,9,11-hexahydropyrido[4′,3′:3,4]pyrazolo[5,1-d][1,2,5]oxadiazepine-10(2H)-carboxamide] the EC50 was 1 to 100 nM. In the case of `CN1OC(CNC(=O)CC(F)(F)F)Cn2nc3c(c2C1=O)CN(C(=O)Nc1ccc(F)c(Cl)c1)CC3` (stereo not shown) [Compound 199, N-(3-chloro-4-fluorophenyl)-2-methyl-1-oxo-4-((3,3,3-trifluoropropanamido)methyl)-1,4,5,8,9,11-hexahydropyrido[4′,3′:3,4]pyrazolo[5,1-d][1,2,5]oxadiazepine-10(2H)-carboxamide], the EC50 is reported as 1 to 100 nM. `CC(C)C(=O)NCC1Cn2nc3c(c2C(=O)N(C)O1)CN(C(=O)Nc1ccc(F)c(Cl)c1)CC3` (stereo not shown) [Compound 200, N-(3-chloro-4-fluorophenyl)-4-(isobutyramidomethyl)-2-methyl-1-oxo-1,4,5,8,9,11-hexahydropyrido[4′,3′:3,4]pyrazolo[5,1-d][1,2,5]oxadiazepine-10(2H)-carboxamide] gave an EC50 of 1 to 100 nM. Work on `CN1OC(CNC(=O)C(C)(C)C)Cn2nc3c(c2C1=O)CN(C(=O)Nc1ccc(F)c(Cl)c1)CC3` (stereo not shown) [Compound 201, N-(3-chloro-4-fluorophenyl)-2-methyl-1-oxo-4-(pivalamidomethyl)-1,4,5,8,9,11-hexahydropyrido[4′,3′:3,4]pyrazolo[5,1-d][1,2,5]oxadiazepine-10(2H)-carboxamide] yielded an EC50 of 1 to 100 nM. For `CCOC(=O)NCC1Cn2nc3c(c2C(=O)N(C)O1)CN(C(=O)Nc1ccc(F)c(Cl)c1)CC3` (stereo not shown) [Compound 202, ethyl ((10-((3-chloro-4-fluorophenyl)carbamoyl)-2-methyl-1-oxo-1,2,4,5,8,9,10,11-octahydropyrido[4′,3′:3,4]pyrazolo[5,1-d][1,2,5]oxadiazepin-4-yl)methyl)carbamate], the EC50 was 1 to 100 nM. `CN1OC(CNC(=O)OC2CC2)Cn2nc3c(c2C1=O)CN(C(=O)Nc1ccc(F)c(Cl)c1)CC3` (stereo not shown) [Compound 203, cyclopropyl ((10-((3-chloro-4-fluorophenyl)carbamoyl)-2-methyl-1-oxo-1,2,4,5,8,9,10,11-octahydropyrido[4′,3′:3,4]pyrazolo[5,1-d][1,2,5]oxadiazepin-4-yl)methyl)carbamate] was tested, and the EC50 was 1 to 100 nM. In the case of `CN(C)C(=O)NCC1Cn2nc3c(c2C(=O)N(C)O1)CN(C(=O)Nc1ccc(F)c(Cl)c1)CC3` (stereo not shown) [Compound 204, N-(3-chloro-4-fluorophenyl)-4-((3,3-dimethylureido)methyl)-2-methyl-1-oxo-1,4,5,8,9,11-hexahydropyrido[4′,3′:3,4]pyrazolo[5,1-d][1,2,5]oxadiazepine-10(2H)-carboxamide], the EC50 is reported as 1 to 100 nM. Molecule `CN1OC(CNC(=O)CC#N)Cn2nc3c(c2C1=O)CN(C(=O)Nc1ccc(F)c(Cl)c1)CC3` (stereo not shown) [Compound 205, N-(3-chloro-4-fluorophenyl)-4-((2-cyanoacetamido)methyl)-2-methyl-1-oxo-1,4,5,8,9,11-hexahydropyrido[4′,3′:3,4]pyrazolo[5,1-d][1,2,5]oxadiazepine-10(2H)-carboxamide] has an EC50 of 1 to 100 nM. `CN1OC(CNC(=O)CO)Cn2nc3c(c2C1=O)CN(C(=O)Nc1ccc(F)c(Cl)c1)CC3` (stereo not shown) [Compound 206, N-(3-chloro-4-fluorophenyl)-4-((2-hydroxyacetamido)methyl)-2-methyl-1-oxo-1,4,5,8,9,11-hexahydropyrido[4′,3′:3,4]pyrazolo[5,1-d][1,2,5]oxadiazepine-10(2H)-carboxamide] gave an EC50 of 1 to 100 nM. `CN1OC(CNC(=O)OCC(F)(F)F)Cn2nc3c(c2C1=O)CN(C(=O)Nc1ccc(F)c(Cl)c1)CC3` (stereo not shown) [Compound 207, 2,2,2-trifluoroethyl ((10-((3-chloro-4-fluorophenyl)carbamoyl)-2-methyl-1-oxo-1,2,4,5,8,9,10,11-octahydropyrido[4′,3′:3,4]pyrazolo[5,1-d][1,2,5]oxadiazepin-4-yl)methyl)carbamate] was tested, and the EC50 was 1 to 100 nM. `CCS(=O)(=O)NCC1Cn2nc3c(c2C(=O)N(C)O1)CN(C(=O)Nc1ccc(F)c(Cl)c1)CC3` (stereo not shown) [Compound 208, N-(3-chloro-4-fluorophenyl)-4-(ethylsulfonamidomethyl)-2-methyl-1-oxo-1,4,5,8,9,11-hexahydropyrido[4′,3′:3,4]pyrazolo[5,1-d][1,2,5]oxadiazepine-10(2H)-carboxamide] gave an EC50 of 1 to 100 nM. `CN1OC(CO)Cn2nc3c(c2C1=O)CC(C(=O)Nc1ccc(F)c(Cl)c1)CC3` (stereo not shown) [Compound 209, N-(3-chloro-4-fluoro-phenyl)-4-(hydroxymethyl)-2-methyl-1-oxo-4,5,8,9,10,11-hexahydro-[1,2,5]oxadiazepino[5,4-b]indazole-10-carboxamide] gave an EC50 of 500 to 1000 nM. For `C[C@@H]1Cc2nn3c(c2CN1C(=O)Nc1ccc(F)c(C#N)c1)C(=O)N(C)O[C@H](COCC(F)(F)F)C3` [Compound 210, (4S,9R)—N-(3-cyano-4-fluorophenyl)-2,9-dimethyl-1-oxo-4-((2,2,2-trifluoroethoxy)methyl)-1,4,5,8,9,11-hexahydropyrido[4′,3′:3,4]pyrazolo[5,1-d][1,2,5]oxadiazepine-10(2H)-carboxamide], the EC50 was 1 to 100 nM.

Same assay, conditions: Hepatitis B virus, HepG2.2.15, read-out: DNA EC50
Molecule `CN1OC(CNC(=O)C(F)(F)F)Cn2nc3c(c2C1=O)CN(C(=O)Nc1ccc(F)c(Cl)c1)CC3` (stereo not shown) [Compound 163, N-(3-chloro-4-fluorophenyl)-2-methyl-1-oxo-4-((2,2,2-trifluoroacetamido)methyl)-1,4,5,8,9,11-hexahydropyrido[4′,3′:3,4]pyrazolo[5,1-d][1,2,5]oxadiazepine-10(2H)-carboxamide] has an EC50 of 1 to 100 nM.
